Where “and” joins values, the source holds several entries; their conditions need not be identical. Identical values can stand only once.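 Values below derive from 48-hour exposures of cells grown in 96-well plates, with endpoints linearly interpolated between the two concentrations bracketing the appropriate inhibition level. GI50 marks 50% less growth. TGI: concentration producing complete growth inhibition.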

Some test systems named below: A549 NSCLC; CAKI-1 renal; IGROV1 ovarian; NCI-H23 lung; OVCAR-3 ovarian; OVCAR-5 ovarian; SF-295 CNS; SN12C renal; UACC-257 melanoma; HOP-92 NSCLC.
What all share (test): NCI tumour cell line growth inhibition, 48 h

Turning to `CCOC(=O)c1c(NC(=S)NCc2ccccc2)sc2c1CCN(C)C2`, the TGI with A549 NSCLC, with CAKI-1 renal, with IGROV1 ovarian, with NCI-H23 lung, in the test on OVCAR-3 ovarian and in the test on OVCAR-5 ovarian was above 100 µM each time. Further, the TGI in the test on SF-295 CNS, with SN12C renal and in the test with UACC-257 melanoma was above 100 µM throughout.
Turning to `CC(C)(C)CC(C)(C)Cc1ccc(OCCOCC[N+](C)(C)Cc2ccccc2)cc1`, the GI50 in the test on A549 NSCLC was 5.06 µM; with CAKI-1 renal it was 3.47 µM; in the test with HOP-92 NSCLC, 1.23 µM; in the test on IGROV1 ovarian, 1.33 µM; in the test with NCI-H23 lung, 1.45 µM; with OVCAR-3 ovarian, 1.34 µM. In addition, the GI50 with OVCAR-5 ovarian is 3.86 µM; with SF-295 CNS, 3.62 µM; in the test with SN12C renal it was 1.57 µM; with UACC-257 melanoma it was 1.51 µM. Besides, the TGI in the test with A549 NSCLC came to 19.7 µM; in the test on CAKI-1 renal it was 13.8 µM; in the test on HOP-92 NSCLC it was 2.56 µM; with IGROV1 ovarian, 2.86 µM; with NCI-H23 lung, 3.8 µM; in the test on OVCAR-3 ovarian, 3.09 µM. Moreover, the TGI with OVCAR-5 ovarian is 15.8 µM; in the test with SF-295 CNS, 15.5 µM; in the test on SN12C renal, 3.04 µM; with UACC-257 melanoma, 3.18 µM.
On to `CN1CCN(c2ccc3nc(-c4ccc(OCCCN5C(=O)c6cccc7cccc(c67)C5=O)cc4)[nH]c3c2)CC1`, for which the GI50 in the test with A549 NSCLC is 16.3 µM; in the test on CAKI-1 renal, 18.8 µM; in the test on HOP-92 NSCLC, 1.66 µM; with IGROV1 ovarian it was 21.8 µM; in the test on NCI-H23 lung it was 8.1 µM; in the test on OVCAR-3 ovarian, 27.1 µM. Also, the GI50 in the test on OVCAR-5 ovarian is 1.89 µM; in the test on SF-295 CNS it was 14.5 µM; in the test on SN12C renal, 15.6 µM; in the test with UACC-257 melanoma, 24.8 µM. Also, the TGI in the test on A549 NSCLC is 62.4 µM; in the test on CAKI-1 renal, above 100 µM; in the test with HOP-92 NSCLC it was 3.29 µM; in the test with IGROV1 ovarian, 66.1 µM; in the test with NCI-H23 lung, 55.9 µM; in the test on OVCAR-3 ovarian it was 95.6 µM. Besides, the TGI is 3.38 µM in the test with OVCAR-5 ovarian, 89.2 µM with SF-295 CNS, 34.8 µM with SN12C renal and 51.8 µM with UACC-257 melanoma.
For `COc1cc2c(cc1-c1c(C)noc1C)ncc1nc(C3CCCCC3)n(C3CCC(OC(F)F)CC3)c12` (stereo not drawn), the GI50 was 2.89 µM with A549 NSCLC; 1.03 µM in the test with CAKI-1 renal; 1.53 µM in the test with HOP-92 NSCLC; 3.94 µM with IGROV1 ovarian; 2.49 µM with NCI-H23 lung; 3 µM in the test on OVCAR-5 ovarian. In addition, the TGI in the test with A549 NSCLC is above 100 µM; with CAKI-1 renal, above 100 µM; in the test on HOP-92 NSCLC, 4.62 µM; in the test with IGROV1 ovarian it was above 100 µM; with NCI-H23 lung, above 100 µM; in the test on OVCAR-5 ovarian, above 100 µM.
`COc1cccc2c1C(=O)c1c(O)c3c(c(O)c1C2=O)C[C@@](O)(C(C)=O)C[C@@H]3OC1CC(N)C(O)C(C)O1` (stereo partly drawn): the GI50 in the test on A549 NSCLC was 0.0153 µM; with HOP-92 NSCLC it was below 0.0104 µM; with IGROV1 ovarian, below 0.0374 µM; in the test on NCI-H23 lung it was below 0.0235 µM; in the test with OVCAR-3 ovarian, 0.0664 µM; in the test on SF-295 CNS, below 0.0147 µM. Further, the GI50 in the test with SN12C renal is below 0.0179 µM; in the test with UACC-257 melanoma, 0.0685 µM.
With `NC(=O)c1cc2ccccc2c(N=Nc2ccccc2)c1O`, the TGI was above 100 µM in the test on A549 NSCLC; 69.9 µM in the test on CAKI-1 renal; above 100 µM in the test with HOP-92 NSCLC; above 100 µM with IGROV1 ovarian; above 100 µM in the test with NCI-H23 lung; above 100 µM in the test with OVCAR-3 ovarian. In addition, the TGI with OVCAR-5 ovarian, with SF-295 CNS, in the test on SN12C renal and with UACC-257 melanoma was above 100 µM each time.
`CCP(=O)(CC)C(Cl)(Cl)C(=O)NC`: the TGI in the test on A549 NSCLC, in the test on CAKI-1 renal, in the test with HOP-92 NSCLC, with IGROV1 ovarian, in the test on NCI-H23 lung and in the test with OVCAR-3 ovarian was above 100 µM each time. In addition, the TGI in the test on OVCAR-5 ovarian, with SF-295 CNS, in the test with SN12C renal and in the test on UACC-257 melanoma was above 100 µM in each case.
Take `N#Cc1ccc(Nc2nc3nc[nH]c3c(=O)[nH]2)cc1`: the TGI with A549 NSCLC, in the test on CAKI-1 renal, in the test on HOP-92 NSCLC, in the test on IGROV1 ovarian, in the test on NCI-H23 lung and in the test with OVCAR-3 ovarian was above 100 µM each time. The TGI with OVCAR-5 ovarian, with SF-295 CNS, with SN12C renal and in the test with UACC-257 melanoma was above 100 µM throughout.
As to `CC(=O)OC1CC2(O)C(CCC3(C)C(c4ccc(=O)oc4)CCC32O)C2(C)CCC(O)C=C12` (stereo not drawn), the GI50 is 0.00624 µM in the test with A549 NSCLC; 0.015 µM in the test with CAKI-1 renal; 0.0375 µM with HOP-92 NSCLC; 0.0375 µM with IGROV1 ovarian; 0.0375 µM with NCI-H23 lung; 0.0738 µM with OVCAR-5 ovarian. The GI50 with SF-295 CNS, in the test with SN12C renal and in the test with UACC-257 melanoma was 0.0375 µM throughout. The TGI with A549 NSCLC was 0.0272 µM; in the test on CAKI-1 renal, 0.124 µM and 0.0425 µM; in the test on HOP-92 NSCLC, 0.374 µM and 0.0869 µM; in the test on IGROV1 ovarian, 0.351 µM and 0.242 µM; in the test on NCI-H23 lung, 0.0311 µM and 0.0704 µM; in the test with OVCAR-3 ovarian it was 0.0229 µM. For the same compound, the TGI was 0.277 µM and 0.26 µM with OVCAR-5 ovarian; 0.0982 µM and 0.0635 µM in the test on SF-295 CNS; 0.105 µM and 0.823 µM in the test with UACC-257 melanoma.
Take `O=c1c(-c2ccccc2)c[nH]c2cc([N+](=O)[O-])c(/C(Cl)=C/c3ccccc3)cc12`: the TGI was 19.6 µM in the test on A549 NSCLC; 87.7 µM in the test on CAKI-1 renal; 10.6 µM in the test on HOP-92 NSCLC; above 38.6 µM in the test on IGROV1 ovarian; above 44.5 µM with NCI-H23 lung; 8.72 µM in the test on OVCAR-3 ovarian. The TGI in the test with OVCAR-5 ovarian is above 59.5 µM; in the test with SF-295 CNS, 26.5 µM; with SN12C renal, 43.7 µM; in the test with UACC-257 melanoma it was 97.3 µM.
As to `Cc1c2cc[n+](C)cc2c(C)c2c1[nH]c1ccc(O)cc12`, the TGI in the test on A549 NSCLC was 99.3 µM; in the test with CAKI-1 renal, above 100 µM; in the test on HOP-92 NSCLC, 52.4 µM; in the test on IGROV1 ovarian, above 100 µM; with NCI-H23 lung it was 63.4 µM; in the test with OVCAR-3 ovarian, above 89.3 µM. Further, the TGI with OVCAR-5 ovarian was above 100 µM; with SF-295 CNS, 64.7 µM; in the test with SN12C renal, 15.5 µM; in the test with UACC-257 melanoma it was above 90.6 µM.
As for `O=C(CCN1CCCC1)Nc1ccc2c(NCCCCc3ccccc3)c3ccccc3nc2c1`, the GI50 in the test on CAKI-1 renal was 9.49 µM; in the test on HOP-92 NSCLC, 1.06 µM; in the test with NCI-H23 lung it was 1.1 µM; in the test with OVCAR-3 ovarian, 1.25 µM; with OVCAR-5 ovarian, 1.38 µM; with SF-295 CNS, 1.5 µM. The GI50 in the test on SN12C renal is 1.08 µM; in the test on UACC-257 melanoma, 1.8 µM. The TGI in the test on CAKI-1 renal was 22.3 µM; with HOP-92 NSCLC, 2.32 µM; with NCI-H23 lung, 2.4 µM; with OVCAR-3 ovarian it was 2.57 µM; in the test on OVCAR-5 ovarian, 2.71 µM; in the test on SF-295 CNS it was 2.88 µM. In addition, the figures for the TGI with SN12C renal and in the test with UACC-257 melanoma were 2.39 µM and 3.5 µM, respectively.
For `Cc1c2cc[n+](C)cc2c(COC2OC(CO)C(O)C2O)c2c3ccccc3n(C)c12` (stereo not drawn), the TGI with A549 NSCLC, in the test with CAKI-1 renal, in the test with HOP-92 NSCLC, in the test on IGROV1 ovarian, with NCI-H23 lung and with OVCAR-3 ovarian was above 100 µM in each case. Besides, the TGI in the test with OVCAR-5 ovarian is above 100 µM; in the test on SF-295 CNS it was above 100 µM; with SN12C renal, 89.1 µM; in the test with UACC-257 melanoma, above 100 µM.

The values are drawn from PubChem BioAssay (NCI).
